Data taken from ChEMBL document CHEMBL5523706, “Structure-based drug design of DNA minor groove binders and evaluation of their antibacterial and anticancer properties” (Eur J Med Chem, 2024).
Values after ≈ are worked out from the molar mass of the structure shown. Active and inactive are the calls of the source. The rule behind the calls is not given here.

Assays:
[1] = Dissociation constant, pKa of the compound; type: physicochemical
[2] = system: Serratia marcescens; test: Bactericidal activity against Serratia marcescens ATCC 13880 assessed as reduction in bacterial viability at 100 uM incubated for 2 hrs in autoclaved distilled water followed by culturing on agar for overnight; type: functional
[3] = Cytotoxicity against human HDF cells assessed as reduction in cell viability at 50 uM incubated for 24 hrs by MTT assay relative to control; type: toxicity, cell-based; details: HDF cells (NHDF cell line), read-out: INH
[4] = system: Panel NCI-60 (60 carcinoma cell lines); test: Antitumor activity against human NCI-60 cells assessed as inhibition of cell growth at 10 uM incubated for 48 hrs by SRB assay; type: functional
[5] = system: NHDF; test: Cytotoxicity against human HDF cells assessed as reduction in cell viability at 50 uM incubated for 24 hrs by MTT assay; type: toxicity, cell-based
[6] = system: Salmonella enterica; test: Bactericidal activity against Salmonella enterica ATCC 14028 assessed as reduction in bacterial viability incubated for 2 hrs in autoclaved distilled water followed by culturing on agar for overnight; type: functional; details: ATCC 14028, 2 h
[7] = system: Bacillus cereus; test: Antibacterial activity against Bacillus cereus assessed as reduction in bacteria-mediated cytopathogenicity pretreated with bacteria followed by incubation with human cells; type: functional
[8] = system: Bacillus cereus; test: Bactericidal activity against Bacillus cereus MTCC 131621 assessed as reduction in bacterial viability at 100 uM incubated for 2 hrs in autoclaved distilled water followed by culturing on agar for overnight; type: functional; details: MTCC 131621, 2 h
[9] = system: Bacillus cereus; test: Bactericidal activity against Bacillus cereus MTCC 131621 assessed as reduction in bacterial viability incubated for 2 hrs in autoclaved distilled water followed by culturing on agar for overnight; type: functional; details: MTCC 131621, 2 h
[10] = system: DNA; test: Binding affinity to minor groove of d(5'-GCGACTAGTCGC3')2 duplex DNA (unknown origin) assessed as change in melting temperature at 2 equiv. in presence of 8 uM DNA measured at 30 to 100 degC by UV spectrophotometric analysis; type: nucleic-acid assay
[11] = system: Streptococcus pyogenes; test: Bactericidal activity against Streptococcus pyogenes ATCC 49399 assessed as reduction in bacterial viability at 100 uM incubated for 2 hrs in autoclaved distilled water followed by culturing on agar for overnight; type: functional; details: for inhibition at 100 µM: ATCC 49399, 2 h
[12] = system: DNA; test: Binding affinity to d(5'-GCGACTAGTCGC-3')2 duplex DNA (unknown origin) at 10 uM measured at 298K by isothermal titration calorimetry; type: nucleic-acid assay
[13] = system: DNA; test: Binding affinity to d(5'-GCGACTAGTCGC-3')2 duplex DNA (unknown origin) assessed as change in enthalpy at 10 uM measured at 298K by isothermal titration calorimetry; type: nucleic-acid assay
[14] = system: Streptococcus pneumoniae; test: Bactericidal activity against Streptococcus pneumoniae ATCC 13883 assessed as reduction in bacterial viability at 100 uM incubated for 2 hrs in autoclaved distilled water followed by culturing on agar for overnight; type: functional; details: for inhibition at 100 µM: ATCC 13883, 2 h
[15] = system: Streptococcus pneumoniae; test: Bactericidal activity against Streptococcus pneumoniae ATCC 13883 assessed as reduction in bacterial viability incubated for 2 hrs in autoclaved distilled water followed by culturing on agar for overnight; type: functional; details: ATCC 13883, 2 h
[16] = system: Escherichia coli; test: Bactericidal activity against Escherichia coli K1 MTCC 710859 assessed as reduction in bacterial viability at 100 uM incubated for 2 hrs in autoclaved distilled water followed by culturing on agar for overnight; type: functional; details: for inhibition at 100 µM: K1 MTCC 710859, 2 h
[17] = system: Salmonella enterica; test: Bactericidal activity against Salmonella enterica ATCC 14028 assessed as reduction in bacterial viability at 100 uM incubated for 2 hrs in autoclaved distilled water followed by culturing on agar for overnight; type: functional; details: ATCC 14028, 2 h
[18] = system: DNA; test: Binding affinity to d(5'-GCGACTAGTCGC-3')2 duplex DNA (unknown origin) assessed as change in entropy at 10 uM measured at 298K by isothermal titration calorimetry; type: nucleic-acid assay
[19] = system: Salmonella enterica; test: Antibacterial activity against Salmonella enterica assessed as reduction in bacteria-mediated cytopathogenicity pretreated with bacteria followed by incubation with human cells; type: functional
[20] = system: DNA; test: Binding affinity to d(5'-GCGACTAGTCGC-3')2 duplex DNA (unknown origin) assessed as change in free energy at 10 uM measured at 298K by isothermal titration calorimetry; type: nucleic-acid assay
[21] = system: DNA; test: Binding affinity to d(5'-GCGACTAGTCGC-3')2 duplex DNA (unknown origin) at DNA to ligand stoichiometric ratio of 0.5:1 measured at 298K by isothermal titration calorimetry; type: nucleic-acid assay
[22] = system: Escherichia coli; test: Bactericidal activity against Escherichia coli K1 MTCC 710859 assessed as reduction in bacterial viability incubated for 2 hrs in autoclaved distilled water followed by culturing on agar for overnight; type: functional; details: K1 MTCC 710859, 2 h
[23] = system: Streptococcus pyogenes; test: Bactericidal activity against Streptococcus pyogenes ATCC 49399 assessed as reduction in bacterial viability incubated for 2 hrs in autoclaved distilled water followed by culturing on agar for overnight; type: functional; details: ATCC 49399, 2 h
[24] = system: Serratia marcescens; test: Bactericidal activity against Serratia marcescens ATCC 13880 assessed as reduction in bacterial viability incubated for 2 hrs in autoclaved distilled water followed by culturing on agar for overnight; type: functional; details: ATCC 13880, 2 h

SMILES | pKa [1] | Activity [2] | cytotoxicity at 24 h, 50 µM [3] | inhibition at 10 µM [4] | Activity [5] | inhibition (INH) [7] | inhibition at 100 µM [8] | ΔTm [10] | inhibition (INH) [19] | also measured
Cn1cc(NC(=O)c2cc(NC(=O)CCSc3ccc4ccccc4c3)cn2C)cc1C(=O)NCCCN1CCOCC1 | 7.01 | inactive | 20% | 7.46% |  |  |  |  |  | 
Cc1ccc(CSCCC(=O)Nc2cc(C(=O)Nc3cc(C(=O)NCCCN4CCOCC4)n(C)c3)n(C)c2)cc1 | 7.01 |  |  | 2.57% | Non-Toxic |  |  |  |  | 
CC(C)c1sc(NC(=O)c2cc(NC(=O)c3cc(NC(=O)c4nccn4C)cn3C)cn2C)nc1C(=O)NCCCN(C)C | 9.3 | inactive | 20% | 24.1% |  | 90% | 63% | 18 °C | 77% | MIC50 [6]: 64 µM (≈ 39.9 µg/mL); MIC90 [6]: 101 µM (≈ 62.8 µg/mL); MIC50 [9]: 28 µM (≈ 17.4 µg/mL); MIC90 [9]: 33.7 µM (≈ 21 µg/mL); Activity [11]: inactive; K [12]: 1.42 10^6/M; deltaH [13]: -20.6 kcal/mol; inhibition at 100 µM [14]: 60%; MIC90 [15]: 67 µM (≈ 41.7 µg/mL); Activity [16]: inactive; inhibition at 100 µM [17]: 60%; TdeltaS [18]: -12.2 kcal/mol; deltaG [20]: -8.41 kcal/mol; Activity [21]: Active
CN(C)CCCNC(=O)c1cc(NC(=O)c2cc(NC(=O)c3ccc(/C=C/c4ccccc4)cc3)cn2C)cn1C | 9.3 |  |  | 64.1% | Toxic |  |  |  |  | 
Cc1ccc(CSCCC(=O)Nc2cc(C(=O)Nc3cc(C(=O)NCCCN(C)C)n(C)c3)n(C)c2)cc1 | 9.3 |  | 20% | 2.57% |  |  |  |  |  | 
CN(C)CCCNC(=O)c1cc(NC(=O)c2cc(NC(=O)c3cc(NC(=O)c4nccn4C)cn3C)cn2C)cn1C | 9.3 |  |  | -3.79% | Toxic |  |  |  |  | 
Cn1cc(NC(=O)c2cc(NC(=O)c3ccc(C#Cc4ccccc4)cc3)cn2C)cc1C(=O)NCCCN1CCOCC1 | 7.01 |  | 20% | 97.7% |  | 74% | 98% | 22 °C | 30% | MIC90 [22]: 106 µM (≈ 62.8 µg/mL); MIC50 [6]: 58 µM (≈ 34.4 µg/mL); MIC90 [6]: 117 µM (≈ 69.1 µg/mL); inhibition at 100 µM ([2]; ATCC 13880, 2 h): 80%; MIC90 [23]: 51 µM (≈ 30.2 µg/mL); inhibition at 100 µM [11]: 83%; inhibition at 100 µM [14]: 97%; MIC90 [15]: 53 µM (≈ 31.4 µg/mL); inhibition at 100 µM [16]: 40%; inhibition at 100 µM [17]: 90%; MIC90 [24]: 88 µM (≈ 52.2 µg/mL)
CN(C)CCCNC(=O)c1cc(NC(=O)c2cc(NC(=O)c3cc(NC(=O)c4cscn4)cn3C)cn2C)cn1C | 9.3 |  | 20% |  |  |  |  |  |  | 
Cn1cc(NC(=O)c2cc(NC(=O)c3ccc(/C=C/c4ccccc4)cc3)cn2C)cc1C(=O)NCCCN1CCOCC1 | 7.01 | inactive |  | 94.1% | Non-Toxic | 70% | 87% | 21 °C | 44% | MIC90 [22]: 76 µM (≈ 45.2 µg/mL); MIC90 [23]: 55 µM (≈ 32.7 µg/mL); MIC50 [9]: 37 µM (≈ 22 µg/mL); MIC90 [9]: 34.3 µM (≈ 20.4 µg/mL); inhibition at 100 µM [11]: 67%; inhibition at 100 µM [14]: 100%; MIC90 [15]: 47 µM (≈ 28 µg/mL); inhibition at 100 µM [16]: 50%; inhibition at 100 µM [17]: 95%
CN(C)CCCNC(=O)c1cc(NC(=O)c2cc(NC(=O)c3ccc(C#Cc4ccccc4)cc3)cn2C)cn1C | 9.3 |  |  | 126% |  |  | 59% |  |  | 
CC(C)c1sc(NC(=O)c2cc(NC(=O)c3cc(NC(=O)c4cscn4)cn3C)cn2C)nc1C(=O)NCCCN(C)C | 9.3 | inactive | 20% | 92.4% |  | 40% | 42% | 20 °C | 41% | MIC50 [6]: 52 µM (≈ 32.5 µg/mL); MIC90 [6]: 134 µM (≈ 83.9 µg/mL); Activity [11]: inactive; K [12]: 2 10^6/M; deltaH [13]: -19 kcal/mol; Activity [14]: inactive; Activity [16]: inactive; TdeltaS [18]: -10.5 kcal/mol; deltaG [20]: -8.46 kcal/mol; Activity [21]: Active
